Data published in the supplement of paper PMC4862054.

How the values were obtained:
MFM-223 [1] = test: normalised viability (% of control), CellTiter-Blue; higher = more viable cells (about 100 = DMSO control); conditions: 100 nM; incubation time: 72 h
Description: (§1)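 DSRT, CellTiter-Blue viability, 72 h incubation. Signal is normalised to DMSO and benzethonium chloride controls. Value is the normalised response at dose 3.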

Hs578T = test: as above; conditions: 100 nM; incubation time: 72 h
Description: as §1

HDQ-P1 [2] = test: as above; conditions: 10 nM; incubation time: 72 h
Description: as §1

HCC1143 [3] = test: as above; conditions: 100 nM; incubation time: 72 h
Description: as §1

CAL-51 [4] = test: as above; conditions: 10 nM; incubation time: 72 h
Description: as §1

MDA-MB-468 [5] = test: as above; conditions: 100 nM; incubation time: 72 h
Description: as §1

BT-474 [6] = test: as above; conditions: 100 nM; incubation time: 72 h
Description: as §1

CAL-120 [7] = test: as above; conditions: 100 nM; incubation time: 72 h
Description: as §1

HCC1937 = test: as above; conditions: 100 nM; incubation time: 72 h
Description: as §1

DU-4475 [8] = test: as above; conditions: 10 nM; incubation time: 72 h
Description: as §1

CAL-85-1 [9] = test: as above; conditions: 10 nM; incubation time: 72 h
Description: as §1

SK-BR-3 [10] = test: as above; conditions: 100 nM; incubation time: 72 h
Description: as §1

MDA-MB-231 [11] = test: as above; conditions: 100 nM; incubation time: 72 h
Description: as §1

BT-549 [12] = test: as above; conditions: 100 nM; incubation time: 72 h
Description: as §1

HCC1599 = test: as above; conditions: 100 nM; incubation time: 72 h
Description: as §1

MDA-MB-436 = test: as above; conditions: 100 nM; incubation time: 72 h
Description: as §1

MDA-MB-453 [13] = test: as above; conditions: 10 nM; incubation time: 72 h
Description: as §1

CAL-148 [14] = test: as above; conditions: 10 nM; incubation time: 72 h
Description: as §1

MFM-223 [15] = test: normalised viability (% of control), CellTiter-Blue; higher = more viable cells (100 = DMSO, 0 = benzethonium chloride kill control); conditions: 1 nM; incubation time: 72 h
In short: (§2)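 Vehicle (100) and a positive kill control (0) anchored the normalisation of each plate, and Z'-factor was used for quality control. Breast cancer cell lines in 20 µl suspension were incubated 72 h over compound in 5 µl medium in 384-well plates, followed by CellTiter-Blue at 560/590 nm. The value is normalised viability at a single listed concentration of the series.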

HDQ-P1 [16] = test: as above; conditions: 1 nM; incubation time: 72 h
In short: as §2

HCC1143 [17] = test: as above; conditions: 1 nM; incubation time: 72 h
In short: as §2

CAL-51 [18] = test: as above; conditions: 1 nM; incubation time: 72 h
In short: as §2

MDA-MB-468 [19] = test: as above; conditions: 1 nM; incubation time: 72 h
In short: as §2

BT-474 [20] = test: as above; conditions: 1 nM; incubation time: 72 h
In short: as §2

CAL-120 [21] = test: as above; conditions: 1 nM; incubation time: 72 h
In short: as §2

DU-4475 [22] = test: as above; conditions: 1 nM; incubation time: 72 h
In short: as §2

CAL-85-1 [23] = test: as above; conditions: 1 nM; incubation time: 72 h
In short: as §2

SK-BR-3 [24] = test: as above; conditions: 1 nM; incubation time: 72 h
In short: as §2

MDA-MB-231 [25] = test: as above; conditions: 1 nM; incubation time: 72 h
In short: as §2

BT-549 [26] = test: as above; conditions: 1 nM; incubation time: 72 h
In short: as §2

MDA-MB-453 [27] = test: as above; conditions: 1 nM; incubation time: 72 h
In short: as §2

CAL-148 [28] = test: as above; conditions: 1 nM; incubation time: 72 h
In short: as §2

| Compound | normalised viability (MFM-223 [1]) | normalised viability (Hs578T) | normalised viability (HDQ-P1 [2]) | normalised viability (HCC1143 [3]) | normalised viability (CAL-51 [4]) | normalised viability (MDA-MB-468 [5]) | normalised viability (BT-474 [6]) | normalised viability (CAL-120 [7]) | normalised viability (HCC1937) | normalised viability (DU-4475 [8]) | normalised viability (CAL-85-1 [9]) | normalised viability (SK-BR-3 [10]) | normalised viability (MDA-MB-231 [11]) | normalised viability (BT-549 [12]) | normalised viability (HCC1599) | normalised viability (MDA-MB-436) | normalised viability (MDA-MB-453 [13]) | normalised viability (CAL-148 [14]) | normalised viability (MFM-223 [15]) | normalised viability (HDQ-P1 [16]) | normalised viability (HCC1143 [17]) | normalised viability (CAL-51 [18]) | normalised viability (MDA-MB-468 [19]) | normalised viability (BT-474 [20]) | normalised viability (CAL-120 [21]) | normalised viability (DU-4475 [22]) | normalised viability (CAL-85-1 [23]) | normalised viability (SK-BR-3 [24]) | normalised viability (MDA-MB-231 [25]) | normalised viability (BT-549 [26]) | normalised viability (MDA-MB-453 [27]) | normalised viability (CAL-148 [28]) |
| --- | --- | --- | --- | --- | --- | --- | --- | --- | --- | --- | --- | --- | --- | --- | --- | --- | --- | --- | --- | --- | --- | --- | --- | --- | --- | --- | --- | --- | --- | --- | --- | --- |
| CC[C@H](Nc1ncnc2[nH]cnc12)c1nc2cccc(F)c2c(=O)n1-c1ccccc1 [CAL-101] | 88.3% | 89.6% | 112% | 102% | 84.7% | 115% | 112% | 97.2% | 97.1% | 98.6% | 87.5% | 76.3% | 80.9% | 102% | 73.6% | 104% | 97.4% | 96.2% | 91.1% | 89.5% | 94% | 88.6% | 100% | 100% | 104% | 106% | 90% | 97.4% | 82.3% | 97.9% | 89.8% | 91.3% |
| C=CC(=O)Nc1cc2c(Nc3ccc(F)c(Cl)c3)ncnc2cc1OCCCN1CCOCC1 [Canertinib] | 98.3% | 79.4% | 96.6% | 90.1% | 109% | 67.1% | 55.7% | 81.5% | 97.4% | 108% | 85.4% | 21.4% | 91.7% | 114% | 91.8% | 102% | 95% | 81.9% | 92.8% | 88.3% | 90.2% | 109% | 110% | 97.5% | 84.4% | 98.5% | 80% | 86.2% | 98.5% | 110% | 103% | 99.5% |
| O=C(O)C1(C(=O)O)CCC1.[NH2-].[NH2-].[Pt+2] [Carboplatin] | 88% | 96% | 96.6% | 86.4% | 100% | 98.8% | 116% | 88% | 94.5% | 98.9% | 87.3% | 91.1% | 92.7% | 101% | 92.8% | 93.3% | 103% | 92.4% | 96.6% | 109% | 90.7% | 99.2% | 100% | 109% | 84.1% | 104% | 90.2% | 105% | 105% | 95.2% | 98.7% | 96.9% |
